PubChem BioAssay AID2060889 (Molecular Pharmacology Branch, DTP, NCI, 2025)

System: LG0567-F671-PDC complex spheroids viability
Test: Anticancer human tumor LG0567-F671-PDC patient-derived lung adenocarcinoma cell line growth inhibition [RAS]
Settings: for IC50: curve of first compound; for viability, T/C: stronger effect = lower value
Method in brief: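 Multi-cell-type spheroids: tumor cells plus HUVEC endothelial cells and mesenchymal stem cells. RAS-pathway inhibitors were combined with targeted agents, each dosed in half-log steps down from clinical Cmax, or from 10 microM when Cmax was unknown.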

[1] = second compound 0.00316 µM, first compound 0.000949 µM
[2] = second compound 0.00316 µM, first compound 0.003 µM
[3] = second compound 0.00316 µM, first compound 0.00949 µM
[4] = second compound 0.00316 µM, first compound 0.03 µM
[5] = second compound 0.00316 µM, first compound 0.0949 µM
[6] = second compound 0.00316 µM, first compound 0.3 µM
[7] = second compound 0.01 µM, first compound 0.000949 µM
[8] = second compound 0.01 µM, first compound 0.003 µM
[9] = second compound 0.01 µM, first compound 0.00949 µM
[10] = second compound 0.01 µM, first compound 0.03 µM
[11] = second compound 0.01 µM, first compound 0.0949 µM
[12] = second compound 0.01 µM, first compound 0.3 µM
[13] = second compound 0.0316 µM, first compound 0.000949 µM
[14] = second compound 0.0316 µM, first compound 0.003 µM
[15] = second compound 0.0316 µM, first compound 0.00949 µM
[16] = second compound 0.0316 µM, first compound 0.03 µM
[17] = second compound 0.0316 µM, first compound 0.0949 µM
[18] = second compound 0.0316 µM, first compound 0.3 µM
[19] = second compound 0.1 µM, first compound 0.000949 µM
[20] = second compound 0.1 µM, first compound 0.003 µM
[21] = second compound 0.1 µM, first compound 0.00949 µM
[22] = second compound 0.1 µM, first compound 0.03 µM
[23] = second compound 0.1 µM, first compound 0.0949 µM
[24] = second compound 0.1 µM, first compound 0.3 µM
[25] = second compound 0.316 µM, first compound 0.000949 µM
[26] = second compound 0.316 µM, first compound 0.003 µM
[27] = second compound 0.316 µM, first compound 0.00949 µM
[28] = second compound 0.316 µM, first compound 0.03 µM
[29] = second compound 0.316 µM, first compound 0.0949 µM
[30] = second compound 0.316 µM, first compound 0.3 µM
[31] = second compound 1 µM, first compound 0.000949 µM
[32] = second compound 1 µM, first compound 0.003 µM
[33] = second compound 1 µM, first compound 0.00949 µM
[34] = second compound 1 µM, first compound 0.03 µM
[35] = second compound 1 µM, first compound 0.0949 µM
[36] = second compound 1 µM, first compound 0.3 µM
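Also: spheroids exposed to compound for seven days before readout.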
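For IC50 in this document: luminescence signal used as a proxy for viable cells.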

## CC(=O)OC12COC1CC(O)C1(C)C(=O)C(O)C3=C(C)C(OC(=O)C(O)C(NC(=O)OC(C)(C)C)c4ccccc4)CC(O)(C(OC(=O)c4ccccc4)C21)C3(C)C (stereo unspecified) + C=CC(=O)N1CCN(c2nc(OCC3CCCN3C)nc3c(F)c(-c4nc(N)cc(C)c4C(F)(F)F)c(Cl)cc23)C(C)C1
Second compound 0.00316 µM
  IC50: < 31.6 nM
Second compound 0.01 µM
  IC50: < 31.6 nM
Second compound 0.0316 µM
  IC50: < 31.6 nM
Second compound 0.1 µM
  IC50: < 31.6 nM
Second compound 0.316 µM
  IC50: < 31.6 nM
Second compound 1 µM
  IC50: < 31.6 nM
Second compound 0.00316 µM, first compound 0.0316 µM
  viability, T/C: 14%
Second compound 0.00316 µM, first compound 0.1 µM
  viability, T/C: 12.6%
Second compound 0.00316 µM, first compound 0.316 µM
  viability, T/C: 13.9%
Second compound 0.00316 µM, first compound 1 µM
  viability, T/C: 14.3%
Second compound 0.00316 µM, first compound 3.16 µM
  viability, T/C: 15.8%
Second compound 0.00316 µM, first compound 10 µM
  viability, T/C: 12%
Second compound 0.01 µM, first compound 0.0316 µM
  viability, T/C: 11.3%
Second compound 0.01 µM, first compound 0.1 µM
  viability, T/C: 11.3%
Second compound 0.01 µM, first compound 0.316 µM
  viability, T/C: 9.97%
Second compound 0.01 µM, first compound 1 µM
  viability, T/C: 11.6%
Second compound 0.01 µM, first compound 3.16 µM
  viability, T/C: 12.5%
Second compound 0.01 µM, first compound 10 µM
  viability, T/C: 9.61%
Second compound 0.0316 µM, first compound 0.0316 µM
  viability, T/C: 13.7%
Second compound 0.0316 µM, first compound 0.1 µM
  viability, T/C: 11.6%
Second compound 0.0316 µM, first compound 0.316 µM
  viability, T/C: 10.8%
Second compound 0.0316 µM, first compound 1 µM
  viability, T/C: 11.4%
Second compound 0.0316 µM, first compound 3.16 µM
  viability, T/C: 14.5%
Second compound 0.0316 µM, first compound 10 µM
  viability, T/C: 9.14%
Second compound 0.1 µM, first compound 0.0316 µM
  viability, T/C: 11.1%
Second compound 0.1 µM, first compound 0.1 µM
  viability, T/C: 10.8%
Second compound 0.1 µM, first compound 0.316 µM
  viability, T/C: 10.9%
Second compound 0.1 µM, first compound 1 µM
  viability, T/C: 11.5%
Second compound 0.1 µM, first compound 3.16 µM
  viability, T/C: 13.6%
Second compound 0.1 µM, first compound 10 µM
  viability, T/C: 8.85%
Second compound 0.316 µM, first compound 0.0316 µM
  viability, T/C: 11.9%
Second compound 0.316 µM, first compound 0.1 µM
  viability, T/C: 10.7%
Second compound 0.316 µM, first compound 0.316 µM
  viability, T/C: 11.5%
Second compound 0.316 µM, first compound 1 µM
  viability, T/C: 12.2%
Second compound 0.316 µM, first compound 3.16 µM
  viability, T/C: 14.7%
Second compound 0.316 µM, first compound 10 µM
  viability, T/C: 9.3%
Second compound 1 µM, first compound 0.0316 µM
  viability, T/C: 12.6%
Second compound 1 µM, first compound 0.1 µM
  viability, T/C: 10.2%
Second compound 1 µM, first compound 0.316 µM
  viability, T/C: 12.4%
Second compound 1 µM, first compound 1 µM
  viability, T/C: 14.5%
Second compound 1 µM, first compound 3.16 µM
  viability, T/C: 14.7%
Second compound 1 µM, first compound 10 µM
  viability, T/C: 9.86%

## CC1(C)CCC(Nc2ncc(C(F)(F)F)c(-c3c[nH]c4c(P(C)(C)=O)c(C#N)ccc34)n2)CN1 (stereo unspecified) + C=CC(=O)N1CCN(c2nc(OCC3CCCN3C)nc3c(F)c(-c4nc(N)cc(C)c4C(F)(F)F)c(Cl)cc23)C(C)C1
Second compound 0.00316 µM
  IC50: < 0.949 nM
Second compound 0.01 µM
  IC50: < 0.949 nM
Second compound 0.0316 µM
  IC50: < 0.949 nM
Second compound 0.1 µM
  IC50: < 0.949 nM
Second compound 0.316 µM
  IC50: < 0.949 nM
Second compound 1 µM
  IC50: < 0.949 nM
[1]
  viability, T/C: 12.2%
[2]
  viability, T/C: 11.3%
[3]
  viability, T/C: 11.2%
[4]
  viability, T/C: 13.6%
[5]
  viability, T/C: 12.2%
[6]
  viability, T/C: 11.8%
[7]
  viability, T/C: 11.9%
[8]
  viability, T/C: 10.2%
[9]
  viability, T/C: 10.1%
[10]
  viability, T/C: 10.1%
[11]
  viability, T/C: 13%
[12]
  viability, T/C: 12.4%
[13]
  viability, T/C: 9.75%
[14]
  viability, T/C: 9.55%
[15]
  viability, T/C: 10.2%
[16]
  viability, T/C: 11.2%
[17]
  viability, T/C: 10.7%
[18]
  viability, T/C: 10.8%
[19]
  viability, T/C: 10.9%
[20]
  viability, T/C: 9.77%
[21]
  viability, T/C: 10.7%
[22]
  viability, T/C: 10.9%
[23]
  viability, T/C: 11.5%
[24]
  viability, T/C: 10.2%
[25]
  viability, T/C: 10%
[26]
  viability, T/C: 9.73%
[27]
  viability, T/C: 10.6%
[28]
  viability, T/C: 10.2%
[29]
  viability, T/C: 12.2%
[30]
  viability, T/C: 11.4%
[31]
  viability, T/C: 10.2%
[32]
  viability, T/C: 11%
[33]
  viability, T/C: 10.4%
[34]
  viability, T/C: 11.1%
[35]
  viability, T/C: 12.4%
[36]
  viability, T/C: 12.3%

## CCc1c2c(nc3ccc(O)cc13)-c1cc3c(c(=O)n1C2)COC(=O)[C@]3(O)CC + C=CC(=O)N1CCN(c2nc(OCC3CCCN3C)nc3c(F)c(-c4nc(N)cc(C)c4C(F)(F)F)c(Cl)cc23)C(C)C1
Second compound 0.00316 µM
  IC50: < 0.949 nM
Second compound 0.01 µM
  IC50: < 0.949 nM
Second compound 0.0316 µM
  IC50: < 0.949 nM
Second compound 0.1 µM
  IC50: < 0.949 nM
Second compound 0.316 µM
  IC50: < 0.949 nM
Second compound 1 µM
  IC50: < 0.949 nM
[1]
  viability, T/C: 17.1%
[2]
  viability, T/C: 14.7%
[3]
  viability, T/C: 15%
[4]
  viability, T/C: 12.2%
[5]
  viability, T/C: 7.62%
[6]
  viability, T/C: 4.2%
[7]
  viability, T/C: 18%
[8]
  viability, T/C: 13.9%
[9]
  viability, T/C: 12.2%
[10]
  viability, T/C: 10.3%
[11]
  viability, T/C: 6.26%
[12]
  viability, T/C: 3.82%
[13]
  viability, T/C: 14.9%
[14]
  viability, T/C: 11.9%
[15]
  viability, T/C: 14%
[16]
  viability, T/C: 8.57%
[17]
  viability, T/C: 6.15%
[18]
  viability, T/C: 3.69%
[19]
  viability, T/C: 13.6%
[20]
  viability, T/C: 12.4%
[21]
  viability, T/C: 9.96%
[22]
  viability, T/C: 9.55%
[23]
  viability, T/C: 6.17%
[24]
  viability, T/C: 2.99%
[25]
  viability, T/C: 12.7%
[26]
  viability, T/C: 12.2%
[27]
  viability, T/C: 11.6%
[28]
  viability, T/C: 9.06%
[29]
  viability, T/C: 6.73%
[30]
  viability, T/C: 3.59%
[31]
  viability, T/C: 13.1%
[32]
  viability, T/C: 13.5%
[33]
  viability, T/C: 12.9%
[34]
  viability, T/C: 9.98%
[35]
  viability, T/C: 8.33%
[36]
  viability, T/C: 4.38%
